Reference: paper PMC5844530, “Fosmetpantotenate (RE-024), a phosphopantothenate replacement therapy for pantothenate kinase-associated neurodegeneration: Mechanism of action and efficacy in nonclinical models” (PLoS ONE, 2018)
Where “and” joins values, the source holds several entries; their conditions need not be identical. Identical values can stand only once. Like-named read-outs stand apart in the source and are kept apart here.

How the values were obtained:
[1] = Stability in simulated gastric fluid; format: in vitro ADME; conditions: simulated gi fluid; pH 1.2; 3.2 mg/mL pepsin; 10 μM; read-out: half-life (t½) in simulated gastric fluid
Method: Stability in simulated gastric fluid: A stock solution of fosmetpantotenate or its individual diastereomers was prepared in 0.1% formic acid in methanol. Simulated gastric fluid, pH 1.2, was prepared with 2 g/L sodium chloride, 3.2 g/L of pepsin, and 0.7% (v/v) HCl. Gastric buffer, pH 1.2, was prepared containing 2 g/L sodium chloride and 0.7% (v/v) HCl. An appropriate aliquot of fosmetpantotenate or individual diastereomers to yield an initial concentration of 10 μM was added to both fluids, and samples were mixed at ~25°C on an orbital shaker. Aliquots (50 μL) were taken at 0, 2, and 4 h; added to 150 μL dimethyl sulfoxide (DMSO) containing an analytical internal standard; vortexed; and analyzed immediately by LC-MS/MS.
Bioanalysis for determinations of analyte stability: Samples were analyzed using a benchtop tandem quadrupole detector (TQD) mass spectrometer (Waters Ltd, Centennial Park, Hertfordshire). […] Suitable retention and peak shape with separation of the 2 diastereomers were obtained. The chromatography column was a Phenomenex-Kinetex XB C18 (2.10 x 50 mm; 2.6 μm), with a 0.7 mL/min flow rate and a 2 μL injection volume. […] The gradient was initiated with 20% B and increased linearly, reaching 40% B at 0.6 min, followed by 50% B at 0.8 min and by 95% B at 0.9 min. Conditions were kept isocratic through 1.2 min, returned to starting conditions (20% B) at 1.25 min, and maintained at 20% B through 1.5 min before the next injection. Since fosmetpantotenate is a mixture of diastereomers which are resolved chromatographically, the fosmetpantotenate MRM area corresponds to the sum of the MRM areas of the individual diastereomers.
The percent of compound remaining was determined from the MRM area response in each sample relative to that in the T = 0 samples (normalized for internal standard). Natural log plots of the percent compound remaining over time were used to determine the t½ of compound disappearance using the relationship t½ = -0.693/λ, where λ is the slope of the natural logarithm of the percent compound remaining vs time curve.

[2] = Microdialysis (striatal dialysate and blood) in cynomolgus monkeys; format: in vivo, cynomolgus monkey; conditions: for Cmax: po, read-out: Cmax; for AUC: read-out: AUC
Method: Monkeys were sedated by intramuscular (i.m.) ketamine administration and cannulated for intravenous (i.v.) administration of propofol infusion (initiated 15–30 min after ketamine administration). Subsequently, the animals were placed in an magnetic resonance imaging (MRI)-compatible stereotaxic frame (Kopf Model 1430), and T1 and T2 weighted scans (for up to 1 h) were carried out with a 7 cm loop-coil in a 3 Tesla Siemens Magnetom TIM Trio (Germany). To derive the coordinates, Digital Imaging and Communications in Medicine (DICOM) files were transformed into Neuroimaging Informatics Technology Initiative (NIFTI) format. NIFTI-compatible images were loaded into 3D viewer software (MRIcro version 1.40 build 1), and the stereotaxic zero in the MRI image was determined using the coordinates of the earbar-tips. Coordinates for placement of the guide cannulas were calculated for every individual animal by use of MRI images and a primate brain map.
On a separate day, microdialysis guide cannulas were placed bilaterally in the head of the caudate nucleus using the same MRI compatible stereotaxic frame (Kopf Model 1430), under isoflurane anesthesia. Prior to surgery, animals were administered ketamine (i.m.), and subsequently anesthetized with isoflurane (0.8%-2% inhalation) while artificially ventilated with O2/N2O (40/60) at 60 to 80 mL tidal volume via an intratracheal tube. During surgery, subcutaneous or i.v. fluids were provided. Animals were allowed to recover from the anesthesia in a warmed environment, single housed, and given at a minimum a 14-day post-surgery recovery time. The following medications were administered to reduce pain and inflammation, as well as reduce the chance of post-operative infection: meloxicam (Metacam 5 mg/mL, 0.2 mg/kg, buprenorphine (Temgesic, 0.3 mg/mL, 0.0038 mg/kg), enrofloxacine (25 mg/mL, 5 mg/kg), and amoxicillin (150 mg/mL, 15 mg/kg).
Samples were stored in -80°C.
From monkeys only, whole blood samples (0.5 mL) were collected from the femoral vein at -1, 0, 1, 2, and 3 h relative to dosing and transferred immediately to chilled polypropylene 15 mL vials containing 2500 μL of 0.15% formic acid in acetonitrile, mixed, and placed on dry ice. After the collections samples were stored at -80°C.
Sample preparation for monkey dialysate and blood samples: Concentrations of fosmetpantotenate (D1 and D2), PA, and PPA in monkey dialysate and blood samples were determined by Brains On-Line LLC. […] For dialysate quantitation, standards and QC samples were prepared in control dialysate (0.2% BSA in aCSF: water: 0.04% ascorbic acid in aqueous 0.02 M formic acid [4.5:24:6 v/v/v]). Standards, QC samples, and dialysate (10 μL) were mixed with 6 μL 20 mM formic acid and 0.01% ascorbic acid in water containing internal standard (10 ng/mL of ^15N/^13C3-PA) and analyzed by LC-MS/MS. Blood standards and QC samples were prepared in supernatant from control monkey blood which had been treated with 5 volumes of 0.15% formic acid in acetonitrile. Endogenous levels >LLOQ were detected for PA in control quenched blood only and quantitated at 56.56 nM based on calibration standard prepared in solvent. To compensate for endogenous PA in the calibration curve control blood, PA standard curve concentrations were spiked plus endogenous levels. Sample work-up of blood involved diluting 10 μL supernatant from study blood samples, standards, and QC samples with 90 μL of 20 mM formic acid and 0.01% ascorbic acid in water, then treating with 4 μL 20 mM formic acid and 0.01% ascorbic acid in water containing internal standard (10 ng/mL of ^15N/^13C3-PA) and analyzing by LC-MS/MS.

For COC(=O)CCNC(=O)[C@H](O)C(C)(C)COP(=O)(N[C@@H](C)C(=O)OC)Oc1ccccc1 (mixture of isomers) [Fosmetpantotenate], the half-life at 10 μM [1] was greater than 10 h, the “fold increase in dialysate AUC from 100 to 300 mg/kg” value ([2]; PA basal adjusted, analyte = label) was 5.0 fold and the “fold increase in blood estimated exposure from 100 to 300 mg/kg” value ([2]; blood) was ~ 3.6 fold. The concentration at 0.5 h ([2]; cynomolgus monkey, in vivo, 300 mg/kg, individual Cyno, Fosmetpantotentate 300 mg/kg PO, corrected for dilution, post-dose, time 0.5 hr, read-out: Fosmetpantotenate Dialysate Concentration) was 2060 nM, the concentration at 1 h ([2]; cynomolgus monkey, in vivo, 300 mg/kg, individual Cyno, Fosmetpantotentate 300 mg/kg PO, corrected for dilution, post-dose, time 1 hr, read-out: Fosmetpantotenate Dialysate Concentration) was 393 nM and the concentration at 1.5 h ([2]; cynomolgus monkey, in vivo, 300 mg/kg, individual Cyno, Fosmetpantotentate 300 mg/kg PO, corrected for dilution, post-dose, time 1.5 hr, read-out: Fosmetpantotenate Dialysate Concentration) was 76 nM. For the same molecule, the concentration at 2 h ([2]; cynomolgus monkey, in vivo, 300 mg/kg, individual Cyno, Fosmetpantotentate 300 mg/kg PO, corrected for dilution, post-dose, time 2 hr, read-out: Fosmetpantotenate Dialysate Concentration) was 20 nM, the concentration at 2.5 h ([2]; cynomolgus monkey, in vivo, 300 mg/kg, individual Cyno, Fosmetpantotentate 300 mg/kg PO, corrected for dilution, post-dose, time 2.5 hr, read-out: Fosmetpantotenate Dialysate Concentration) was 7.12 nM and the concentration at 1 h ([2]; cynomolgus monkey, in vivo, 300 mg/kg, individual Cyno, Fosmetpantotentate 300 mg/kg PO, post-dose, time 1 hr, read-out: Fosmetpantotenate Blood Concentration) was 7390 nM. For the same molecule, the concentration at 3 h ([2]; cynomolgus monkey, in vivo, 300 mg/kg, individual Cyno, Fosmetpantotentate 300 mg/kg PO, post-dose, time 3 hr, read-out: Fosmetpantotenate Blood Concentration) was 227 nM, the Cmax ([2]; cynomolgus monkey, in vivo, 100 mg/kg, blood, fosmetpantotenate 100 mg/kg PO, analyte = label) was 1650 ± 1930 nM and the Cmax ([2]; cynomolgus monkey, in vivo, 100 mg/kg, dialysate, fosmetpantotenate 100 mg/kg PO) was 221 ± 253 nM. For the same molecule, the Cmax ([2]; cynomolgus monkey, in vivo, 300 mg/kg, dialysate, fosmetpantotenate 300 mg/kg PO, mean (individual values)) was 1560 nM, the AUC ([2]; cynomolgus monkey, in vivo, dialysate, fosmetpantotenate 100 mg/kg PO) was 0.209 ± 0.234 µM·h and the AUC ([2]; cynomolgus monkey, in vivo, dialysate, fosmetpantotenate 300 mg/kg PO, mean (individual values)) was 1.03 µM·h. It also gave a concentration at 3 h ([2]; cynomolgus monkey, in vivo, individual Cyno, Fosmetpantotentate 300 mg/kg PO, corrected for dilution, post-dose, time 3 hr, LLOQ D1=0.2 nM, D2=0.3 nM, read-out: Fosmetpantotenate Dialysate Concentration) of 23.7 nM, a Cmax ([2]; cynomolgus, cynomolgus monkey, in vivo, 300 mg/kg, blood, fosmetpantotenate 300 mg/kg PO, mean (individual values), analyte = label) of 6040 nM and an AUC ([2]; cynomolgus, cynomolgus monkey, in vivo, blood, fosmetpantotenate 100 mg/kg PO, analyte = label) of 1.87 ± 1.96 µM·h. It also gave an AUC ([2]; cynomolgus, cynomolgus monkey, in vivo, blood, fosmetpantotenate 300 mg/kg PO, mean (individual values), analyte = label) of 6.81 µM·h, a concentration at 3 h ([2]; individual Cyno, Fosmetpantotentate 300 mg/kg PO, corrected for dilution, post-dose, time 0.5 hr, read-out: Fosmetpantotenate Dialysate Concentration) of 1059.88 nM and a concentration at 3 h ([2]; individual Cyno, Fosmetpantotentate 300 mg/kg PO, corrected for dilution, post-dose, time 1 hr, read-out: Fosmetpantotenate Dialysate Concentration) of 429.27 nM. It also gave a concentration at 3 h ([2]; individual Cyno, Fosmetpantotentate 300 mg/kg PO, corrected for dilution, post-dose, time 1.5 hr, read-out: Fosmetpantotenate Dialysate Concentration) of 72.40 nM, a concentration at 3 h ([2]; individual Cyno, Fosmetpantotentate 300 mg/kg PO, corrected for dilution, post-dose, time 2 hr, read-out: Fosmetpantotenate Dialysate Concentration) of 19.06 nM and a concentration at 3 h ([2]; individual Cyno, Fosmetpantotentate 300 mg/kg PO, corrected for dilution, post-dose, time 2.5 hr, read-out: Fosmetpantotenate Dialysate Concentration) of 4.54 nM. For the same molecule, the “Fosmetpantotenate Dialysate Concentration” value ([2]; individual Cyno, Fosmetpantotentate 300 mg/kg PO, corrected for dilution, post-dose, time 3 hr, LLOQ D1=0.2 nM, D2=0.3 nM) was “BLQ”, the “Fosmetpantotenate Dialysate Concentration” value ([2]; individual Cyno, Fosmetpantotentate 300 mg/kg PO, corrected for dilution, pre-dose, time 0 hr, LLOQ D1=0.2 nM, D2=0.3 nM) was “<LLOQ” and the “Fosmetpantotenate Dialysate Concentration” value ([2]; individual Cyno, Fosmetpantotentate 300 mg/kg PO, corrected for dilution, pre-dose, time -0.5 hr, LLOQ D1=0.2 nM, D2=0.3 nM) was “<LLOQ”. For the same molecule, the “Fosmetpantotenate Dialysate Concentration” value ([2]; individual Cyno, Fosmetpantotentate 300 mg/kg PO, corrected for dilution, pre-dose, time -1 hr, LLOQ D1=0.2 nM, D2=0.3 nM) was “<LLOQ”, the concentration at 1 h ([2]; individual Cyno, Fosmetpantotentate 300 mg/kg PO, post-dose, time 1 hr, read-out: Fosmetpantotenate Blood Concentration) was 4687.62 nM and the concentration at 1 h ([2]; individual Cyno, Fosmetpantotentate 300 mg/kg PO, post-dose, time 2 hr, read-out: Fosmetpantotenate Blood Concentration) was 1026.66 nM and 312.23 nM. The concentration at 1 h ([2]; individual Cyno, Fosmetpantotentate 300 mg/kg PO, post-dose, time 3 hr, read-out: Fosmetpantotenate Blood Concentration) was 183.68 nM, the “Fosmetpantotenate Blood Concentration” value ([2]; individual Cyno, Fosmetpantotentate 300 mg/kg PO, pre-dose, time 0 hr relative to dose) was “<LLOQ” and the “Fosmetpantotenate Blood Concentration” value ([2]; individual Cyno, Fosmetpantotentate 300 mg/kg PO, pre-dose, time -1 hr relative to dose) was “<LLOQ”.
